Assay results from publication PMC6586287, “Blocking transmembrane219 protein signaling inhibits autophagy and restores normal cell death” (PLoS ONE, 2019).
Entries after “also recorded” stand apart in the source; their conditions may differ.

Experiments:
[1] = tested on: TM219-calmodulin complex in THP1 cells; assay: co-immunoprecipitation of TM219 complex, anti-calmodulin immunoblot, THP1 cells; assay type: cell-based, human; details: 1 μM IGFBP3, 1 h, serum free
Method: For immunoprecipitation of TM219 complex, we treated 6X10^6 THP1 cells grown in Roswell park memorial institute 1640 medium (PRIM) without serum with 1 μM IGFBP3 for 1 hour. Cells were lysed with immunoprecipitation buffer (1% NP-40, 150 mM NaCl, and 50 mM Tris pH 8.4 in the presence of 2 X protease inhibitors (Roche)). Crosslinking of mouse anti-TM219 antibodies to protein A-Sepharose was performed as previously described. Briefly, 1 mg of the antibody was incubated with 1 ml protein A-Sepharose beads (Thermofisher scientific), with continuous mixing at 4°C for 2 h. The beads were then centrifuged and washed five times with PBS and once with 200 mM sodium borate, pH 9. Equal volumes of 40 mM dimethylsuberimidate (Thermofisher scientific) in 200 mM sodium borate were mixed with the beads, and the suspension was incubated, with continuous mixing, at room temperature for 30 min. The reaction was terminated by addition of equal volumes of 400 mM ethanolamine, and the sample was incubated for an additional 30 min. The beads were packed into a 1-cm-diameter column (Bio-RAD) and washed three times with 2 bed volumes of PBS and once with 4 bed volumes of 100 mM glycine-HCl at pH 2.4 to remove non-cross-linked antibodies. Finally, the cross-linked antibody beads were washed with PBS until the pH reached 7 and stored at 4°C in PBS containing 0.02% sodium azide. […]

[2] = tested on: cytosolic calcium in MCF7 cells; assay: cytosolic calcium, colorimetric kit, MCF7 cells; assay type: cell-based, human; details: 1 μM IGFBP3, 5 min, serum free
Method: We used a colorimetric kit to measure the increase in the cytosolic calcium in MCF7 cells according to the provider recommendations (Abcam). MCF7 cells were grown in completed DMEM medium at density of 5x10^5 cells/ml in 6 well plates. We compared the effects of 1μM IGFBP3 on the wild type, TM219 knockout and untreated MCF7 cells after 5 minutes in serum free medium. As a positive control we used […] ionomycin (Thermofishter Scientific). As a negative control we pretreated MCF7 cells with […] BAPTA for 30 minutes (Thermofisher Scientific). Experiments were run in triplicate.

[3] = tested on: TM219 complex (calmodulin, CaMKII) in MCF7 cells; assay: immunopurification of TM219 complex, anti-CaMKII / anti-calmodulin immunoblot, MCF7 cells; assay type: cell-based, human; details: 1 μM IGFBP3, versus untreated and normal mouse antibody beads
Vero cells = assay: DIC microscopy of internal vacuoles, Vero cells; assay type: cell-based; details: wild type versus TM219 knockout Vero cells; 1 μM IGFBP3, 1 h, serum free
[4] = fluorescence anisotropy control binding to empty nanodisc
Method: Reconstituted TM219 into 13 nm nanodisc and labeling of our purified calmodulin or IGFBP3 (R&D systems) with BODIPY-TRM-X-succinimidyl ester dye were described previously. […] Serial dilution of the TM219 short cytoplasmic peptide (1pM-10mM) was used. Fluorescence anisotropy assays were done in triplicates and data represent an average of three independent experiments. Each sample was run in triplicates and an average of 60 readings was used for calculation. Binding constants (KDs) or inhibition constant (Ki) were determined with Origin 7 (OriginLab) by fitting the data as described previously.

[5] = tested on: phospho-Beclin1 in MCF7 cells; assay: Beclin1 phosphorylation / autophagy immunoblot, MCF7 cells; assay type: cell-based, human; details: 1 μM IGFBP3, 1 h, serum free; wild type versus TM219 knockout; anti-phospho-beclin1, anti-LC3
Method: For phosphorylation assay of Beclin1 protein, we treated 6x10^6 MCF7 cells grown in DMEM serum free medium with 1 μM IGFBP3. Lysates were prepared in RIPA buffer in presence of 2X protease and phosphatase inhibitors (Thermofisher Scientific). Lysates were clarified by centrifugation at 10,000 rpm for 30 minutes at 4°C. Finally, the blotted membranes were probed with anti-TM219, LC3, calmodulin, phospho-beclin1, or β-actin. To quantify the ratio between LC3-II and LC3-I, we used an image densitometry method using ImageJ software.

[6] = tested on: cytosolic calcium in MCF7 cells; details: independent on IGF or heparin; ref [55]; cited from earlier work
From the text: After that we compared the effects of IGFBP3 on elevation of intracellular calcium in these cells. […] However, no sign ...

[7] = tested on: LC3 processing in Vero cells; assay: LC3-II punctate staining, LC3-mRFP transfected Vero cells; assay type: cell-based
Method: Immunostaining was performed as described previously (44). Briefly, cells were grown on a coverslip overnight at 5×10^5 cells/ml. 1 μl of Hoechst stain (10 μg/μl) was added to the cells for 10 min at 37°C. For tracking TM219 short cytoplasmic peptide assay, we pretreated the cells with the peptides at concentration of 0, 25, or 250 nM, then added 1 μM IGFBP3 for an hour in DMEM serum free medium. Cells were fixed with 4% paraformaldehyde and permeabilized with 1% triton x100. Cells were then blocked overnight with 10% fetal bovine serum (FBS) in PBS. Finally, cells were stained with streptavidin conjugated to Alex555 (Thermofisher Scientific) for 30 minutes in the same blocking buffer. For immunostaining, cells were stained with the primary antibody according to the manufacturer’s recommendation in the same blocking buffer. The cells were washed 10 times with PBS. Cells were blocked for 1 h with 10% FBS and then stained with secondary antibody conjugated to fluorescence dye (Thermofisher Scientific). As controls, we used secondary antibodies alone. Cells were washed 10 times with PBS and mounted with fluoromount G (Microscopic Science) before examination.
We stained the intact cellular mitochondria using TMRM dye according to the provider recommendations (Thermofisher Scientific). To evaluate the cell membrane permeability in 3D culture, we used membrane impermeable dye propodeum iodide (PI), and the membrane permeable dye (Hoechst dye) to stain the cell nuclei according to the manufacturer recommendations (Thermofisher Scientific). For autophagy efflux assay, we used chloroquine (Sigma-Alderish) (CQ) at final concentration of 200 μM as described previously. Collected images were analyzed with ImageJ software.

MDA-MB231 cells = assay: pHLIP-Cy3 insertion, fluorescence microscopy, MDA-MB231 cells in 2D and 3D culture; assay type: cell-based, human; details: 2D (3 days) and 3D (0.5% low melting agarose, 5 days) culture; 6 h at 37°C in DMEM buffered with PBS
Method: A- MDA-MB231 cells were grown in a complete DMEM medium for 3 days or in 0.5% low melting agarose in complete medium for 5 days were treated with phLIP-Cy3 peptide in DMEM buffered with PBS for 6 hour at 37°C. Growth media were replaced with completed DMEM medium buffered with carbonate. Cells were imaged for insertion of the peptide. […] Nuclei of the cells were stained with Hoechst stain (blue) B-Cells pretreated with pHLIP-TM219 peptide or pHLIP peptide alone for 5 days in 0.5% low melting agarose in DMEM complete media supplemented with 1 μM IGFBP3. The peptides were mixed with DMEM buffered with PBS and added to the spheroids grown in low melting agarose. After 6 hours, the media were replaced with completed DMEM media buffered with carbonate pH 7.2. Cells were incubated for additional 9 days at 37°C in a CO2 incubator. […] Living cells were assessed by Hoechst dye stain (Blue).

MCF7 cells = assay: pHLIP-Cy3 insertion into cell membrane, fluorescence microscopy, MCF7 cells; assay type: cell-based, human; details: pH 7.4 or pH 5.5, 5 min
Method: Fig 6 TM219 short cytoplasmic protein tail peptide disrupts the interaction between calmodulin and TM219 protein. […] As the concentration of the free peptide increased, the changes in FP signal decreased. […] B- MCF7 cells treated with pHLIP-cy3 peptide at pH 7.4 or pH 5.5 for 5 minutes. Cells were fixed and examined with fluorescence microscopy. […] Nuclei were stained with Hoechst dye (blue). C-MCF7 cells pretreated with either SCTT-pHLIP or pHLIP peptide alone were treated with 1μM IGFBP3 for 1hour in DMEM serum free medium. Cell lysates were subjected to immunoblot using anti-human phosphor-beclin1 antibody. […] TEXT PRINTED IN THE PICTURE: (A) unlabeled peptide: ki 0.02342 ± 0.001492 DOUBTS OF THE COPYIST ABOUT THIS PICTURE: Panel A, ki: no unit is printed with the value. The substance label 'unlabeled peptide' is taken from the printed x-axis title because the fit box names no substance. / Panel A: 'c 0.1 ± 0' in the fit box was left out as a fit parameter whose meaning is unclear.

Insulin-like growth factor binding protein 3 [IGFBP3]
TM219-calmodulin complex formation (co-immunoprecipitation) [1]: immunoprecipitation with anti-TM219 consistently brought down calmodulin | cytosolic calcium, TM219 knockout versus wild type [2]: no significant difference | cytosolic calcium ([2]; % of ionomycin reading, BAPTA reading subtracted): triggered elevation of the cytosolic calcium in MCF7 independent of TM219 receptor; also recorded: relatively higher signal of calcium relative to untreated MCF7 cells | association of calmodulin and CaMKII with TM219 complex [3]: TM219 protein recruits calmodulin and calmodulin dependent kinase II after treatment with IGFBP3; also recorded: Purified proteins from cells treated with IGFBP3 reacted specifically with anti-CaMKII antibody | internal vacuoles (Vero cells): TM219 wild type Vero cells demonstrated larger internal vacuoles after treatment with IGFBP3 compared to TM219 knockout Vero cells; also recorded: wild type Vero cells showed larger internal vacuoles | binding of labelled IGFBP3 to empty nanodisc ([4]; empty nanodisc 0-2000 nM, fluorescence anisotropy): No specific binding was detected | autophagy activation in MCF7 cells [5]: activates autophagy in MCF7 cells | intracellular calcium release in MCF7 cells (previous studies) [6]: activates intracellular rapid release of intracellular calcium in MCF7 cells | LC3 processing (LC3-II punctate staining) ([7]; Vero cells with LC3-mRFP, 1 μM IGFBP3, 1 h, serum free, mean +/- SEM plotted): significant increase in processing of LC3; also recorded: significant increase in number of LCII punctate stain

calmodulin
binding of calmodulin to empty nanodisc ([4]; empty nanodisc 0-100 μM, 1 mM calcium chloride, 1 μM IGFBP3): No specific binding was detected; also recorded: No specific binding was observed

CCN(CC)CCCC(C)Nc1ccnc2cc(Cl)ccc12 (centres unmarked) [chloroquine, reference compound]
LC3-II punctate accumulation with chloroquine ([7]; 200 μM chloroquine plus 1 μM IGFBP3): this punctate stain was accumulated in the cytoplasm | LC3-II punctate accumulation with chloroquine ([7]; 200 μM chloroquine plus 1 μM IGFBP3, listed as CQ): accumulates LCII positive vesicles in the cytoplasm of Vero cells

AEQNPIYWARYADWLFTTPLLLLDLALLVDADEGTC-s-s-C(cy3) [pHLIP-cy3]
insertion into plasma membrane of MDA-MB231 cells (MDA-MB231 cells): insertion of pHLIP-cy3 peptide into the plasma membrane of MAD-MB231 in both two dimension and three dimension cell cultures | insertion into plasma membrane of MCF7 cells (MCF7 cells): Staining of the cells with red dye indicates insertion of pHLIP-cy3 into the cell membrane of MCF7 cells
